Key:
[1] = target: T1, Glucocorticoid Receptor (GR) (Homo sapiens, UniProt P04150); assay: GR reporter assay (GR-GAL4 Reporter (Luc)-HEK293 cells, Steady-Glo luciferase); format: cell-based; conditions: 24 hours, read-out: GR reporter agonist
T1 construct: A GAL4-responsive firefly luciferase reporter is the read-out; Some cells also express CD40, which is irrelevant for the free small molecules
T1 sequence (P04150 524-777 limits assumed): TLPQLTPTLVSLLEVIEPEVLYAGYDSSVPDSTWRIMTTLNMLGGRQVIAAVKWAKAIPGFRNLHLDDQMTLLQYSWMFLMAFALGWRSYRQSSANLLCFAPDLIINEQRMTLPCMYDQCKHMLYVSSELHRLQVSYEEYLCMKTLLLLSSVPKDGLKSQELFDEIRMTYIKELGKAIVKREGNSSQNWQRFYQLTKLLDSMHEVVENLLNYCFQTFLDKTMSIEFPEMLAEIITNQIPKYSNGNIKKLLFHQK
Procedure: Certain GR agonist compounds of the present disclosure were tested in a GR reporter assay. Briefly, CD40 expressing GR-GAL4 Reporter (Luc)-HEK293 or parental GR-GAL4 reporter (Luc)-HEK293 cells were harvested from culture and seeded wells at a density of ˜30,000 cells per well in 45 μl of assay medium. Cells were incubated at 37° C. in a CO2 incubator overnight. […] The plates were incubated at 37° C. in a CO2 incubator for 24 hours. The Steady-Glo Luciferase Assay System (Promega), following manufacturer's instructions, was used to detect luminescence, which was measured using a luminometer.
The average background luminescence (cell-free control wells) was substracted from the luminescence reading of all wells. […] The EC50 value for each conjugate was determined in both CD40 expressing and parental GR-GAL4 Reporter (Luc)-HEK293 cells and the ratio was used to as a measure of linker stability and non-specific uptake.

[2] = system: Human monocyte derived dendritic cells and allogeneic CD3+ T cells; assay: Allo mixed lymphocyte assay (monocyte derived dendritic cells + allogeneic CD3+ T cells), cytokines by MSD ELISA; format: cell-based; conditions: 100 nM, 48 hrs co-culture, mean of duplicates
Procedure: Human monocyte derived dendritic cells were derived in vitro from healthy human donor CD 14^+ monocytes, isolated from blood by standard cell marker negative selection with antibody coated beads, by culture of the monocytes under a standard dendritic cell generation protocol with added GM-CSF and IL4 for 6 days. […] Conjugates, protein, and small molecule controls were added at 100 nM immediately after. After 48 hrs of co-culture supernatants were collected from wells and cytokine levels for T cell derived cytokines (IL2, IFNγ) and dendritic cell derived cytokines (IL6, IL 12p40) were measured by MSD multiplex ELISA and plate reader per manufacturer's instructions (Meso Scale Diagnostics LLC).

[3] = system: antigen-driven (FITC) ear inflammation; assay: FITC antigen-driven ear inflammation in mice (ear swelling); format: in vivo, Balb/c mice; conditions: 24 hours after FITC rechallenge, ip 20 mpk conjugate or antibody, 10 mpk dexamethasone
Procedure: Female Balb/c mice aged 6-7 weeks (Envigo Labs) were used. On day 0 ear thickness was measured in all mice using microcalipers. On day 0 mice were then sensitized to the antigen fluorescsein isothiocyanate (FITC) on a shaved flank by application of 50 microliters of 1% FITC in a formulation of 50% acetone:50% dibutyl phthalate. […] After 24 hours ear thickness was determined on the treated ear. […] Animals were bled for serum and sacrificed on day 9. […] Ear thickness and ELISA results were analyzed for differences in means with GraphPad Prism software by one-way ANOVA with Dunnett's multiple comparisons.

[4] = system: GR-GAL4 Reporter (Luc)-HEK293 cell line stably expressing membrane human BAFF (memBAFF); assay: GR-GAL4 luciferase reporter assay, memBAFF reporter cell line; format: cell-based
Procedure: (§1) To determine the level of GR agonism at the end of the incubation luciferase levels were determined with the Steady-Glo Luciferase Assay System (Promega, cat #E2520 or E2550). The results were analyzed with Graphpad Prism software v9.1 (Graphpad Inc) to determine EC50.
(§2) The memBAFF and parental GR-GAL4 luciferase cell reporter cell lines were plated in 96 well plates in complete DMEM media. […] To determine the level of GR agonism found for the different treatments, at the end of the incubation firefly luciferase was measured as per manufacturer's instructions with the Steady-Glo Luciferase Assay System (Promega, cat #E2520 or E2550) and then analyzed with Graphpad Prism software (Graphpad Inc v9.1) to determine EC50.

[5] = system: parental GR-GAL4 Reporter (Luc)-HEK293 cell line (non-BAFF-expressing); assay: GR-GAL4 luciferase reporter assay, parental reporter cell line (Anti-BAFF conjugates); format: cell-based
Procedure: as §1, §2

Molecule: Cc1nn[nH]c1-c1ccc([C@@H]2O[C@@H]3C[C@H]4[C@@H]5CCC6=CC(=O)C=C[C@]6(C)[C@H]5[C@@H](O)C[C@]4(C)[C@]3(C(=O)CO)O2)cc1 [Compound 1]
- EC50 [1]: 22.2 nM

Molecule: C[C@]12C=CC(=O)C=C1CC[C@@H]1[C@@H]2[C@@H](O)C[C@@]2(C)[C@H]1C[C@H]1O[C@@H](c3ccc(Cn4ccnn4)cc3)O[C@]12C(=O)CO [Compound 2]
- EC50 [1]: 17 nM

Molecule: C[C@]12C=CC(=O)C=C1CC[C@@H]1[C@@H]2[C@@H](O)C[C@@]2(C)[C@H]1C[C@H]1O[C@@H](c3ccc(Cc4c[nH]nn4)cc3)O[C@]12C(=O)CO [Compound 3]
- EC50 [1]: 25.1 nM

Molecule: Cn1nccc1[C@@H]1O[C@@H]2C[C@H]3[C@@H]4CCC5=CC(=O)C=C[C@]5(C)[C@H]4[C@@H](O)C[C@]3(C)[C@]2(C(=O)CO)O1 [Compound 4]
- EC50 [1]: 21.8 nM

Molecule: Cn1cc([C@@H]2O[C@@H]3C[C@H]4[C@@H]5CCC6=CC(=O)C=C[C@]6(C)[C@H]5[C@@H](O)C[C@]4(C)[C@]3(C(=O)CO)O2)cn1 [Compound 5]
- EC50 [1]: 49.1 nM

Molecule: C[C@]12C=CC(=O)C=C1CC[C@@H]1[C@@H]2[C@@H](O)C[C@@]2(C)[C@H]1C[C@H]1O[C@@H](c3ccc4c(c3)OCO4)O[C@]12C(=O)CO [Compound 6]
- EC50 [1]: 25.2 nM

Molecule: C[C@]12C=CC(=O)C=C1CC[C@@H]1[C@@H]2[C@@H](O)C[C@@]2(C)[C@H]1C[C@H]1O[C@@H](c3ccc4c(c3)OCCO4)O[C@]12C(=O)CO [Compound 7]
- EC50 [1]: 47 nM

Molecule: C[C@]12C=CC(=O)C=C1CC[C@H]1[C@@H]3C[C@H]4O[C@@H](c5ccccc5)O[C@@]4(C(=O)CO)[C@@]3(C)C[C@H](O)[C@@]12F [Compound 8]
- EC50 [1]: 1.1 nM

Molecule: C[C@]12C=CC(=O)C=C1[C@@H](F)C[C@H]1[C@@H]3C[C@H]4O[C@@H](C5CCC5)O[C@@]4(C(=O)CO)[C@@]3(C)C[C@H](O)[C@@]12F [Compound 14]
- EC50 [1]: 0.68 nM

Molecule: C[C@]12C=CC(=O)C=C1[C@@H](F)C[C@H]1[C@@H]3C[C@H]4O[C@@H](C56CC(C5)C6)O[C@@]4(C(=O)CO)[C@@]3(C)C[C@H](O)[C@@]12F [Compound 15]
- EC50 [1]: 2.9 nM

Molecule: C[C@]12C=CC(=O)C=C1[C@@H](F)C[C@H]1[C@@H]3C[C@H]4O[C@@H](c5cccc(F)c5)O[C@@]4(C(=O)CN)[C@@]3(C)C[C@H](O)[C@@]12F [Compound 16]
- EC50 [1]: 39.1 nM

Molecule: C[C@]12C=CC(=O)C=C1[C@@H](F)C[C@H]1[C@@H]3C[C@H]4O[C@@H](c5ccc(Oc6ccccc6)c(F)c5)O[C@@]4(C(=O)CO)[C@@]3(C)C[C@H](O)[C@@]12F [Compound 18]
- EC50 [1]: 1.2 nM

Molecule: C[C@]12C=CC(=O)C=C1[C@@H](F)C[C@H]1[C@@H]3C[C@H]4O[C@@H](c5ccc(OCC(F)(F)CN)c(F)c5)O[C@@]4(C(=O)CO)[C@@]3(C)C[C@H](O)[C@@]12F [Compound 19]
- EC50 [1]: 23.8 nM

Molecule: C[C@]12C=CC(=O)C=C1[C@@H](F)C[C@H]1[C@@H]3C[C@H]4O[C@@H](c5ccc(F)s5)O[C@@]4(C(=O)CO)[C@@]3(C)C[C@H](O)[C@@]12F [Compound 27]
- EC50 [1]: 0.46 nM

Molecule: C[C@]12C=CC(=O)C=C1[C@@H](F)C[C@H]1[C@@H]3C[C@H]4O[C@@H](c5sccc5F)O[C@@]4(C(=O)CO)[C@@]3(C)C[C@H](O)[C@@]12F [Compound 30a]
- EC50 [1]: 0.44 nM

Molecule: C[C@]12C=CC(=O)C=C1[C@@H](F)C[C@H]1[C@@H]3C[C@H]4O[C@@H](C#Cc5ccccc5)O[C@@]4(C(=O)CO)[C@@]3(C)C[C@H](O)[C@@]12F [Compound 40]
- EC50 [1]: 14.3 nM

Molecule: C[C@]12C=CC(=O)C=C1[C@@H](F)C[C@H]1[C@@H]3C[C@H]4O[C@@H](C5CC6(CCOCC6)C5)O[C@@]4(C(=O)CO)[C@@]3(C)C[C@H](O)[C@@]12F [Compound 42]
- EC50 [1]: 9 nM

Molecule: C[C@]12C=CC(=O)C=C1[C@@H](F)C[C@H]1[C@@H]3C[C@H]4O[C@@H](c5cc6c(s5)CCCC6)O[C@@]4(C(=O)CO)[C@@]3(C)C[C@H](O)[C@@]12F [Compound 43]
- EC50 [1]: 3.7 nM

Molecule: C[C@@H](c1ccccc1)[C@@H]1O[C@@H]2C[C@H]3[C@@H]4C[C@H](F)C5=CC(=O)C=C[C@]5(C)[C@@]4(F)[C@@H](O)C[C@]3(C)[C@]2(C(=O)CO)O1 [Compound 50]
- EC50 [1]: 23 nM

Molecule: C[C@]12C=CC(=O)C=C1CC[C@H]1[C@@H]3C[C@H]4O[C@@H](C5CCC5)O[C@@]4(C(=O)CO)[C@@]3(C)C[C@H](O)[C@@]12F [Compound 51]
- EC50 [1]: 1.2 nM

Molecule: C[C@]12C=CC(=O)C=C1CC[C@H]1[C@@H]3C[C@H]4O[C@@H](c5sccc5F)O[C@@]4(C(=O)CO)[C@@]3(C)C[C@H](O)[C@@]12F [Compound 52a]
- EC50 [1]: 0.57 nM

Molecule: C[C@]12C=CC(=O)C=C1CC[C@@H]1[C@@H]2[C@@H](O)C[C@@]2(C)[C@H]1C[C@H]1O[C@@H](c3sccc3F)O[C@]12C(=O)CO [Compound 53a]
- EC50 [1]: 0.89 nM

Molecule: C[C@]12C=CC(=O)C=C1CC[C@@H]1[C@@H]2[C@@H](O)C[C@@]2(C)[C@H]1C[C@H]1O[C@@H](/C=C/C3CC3)O[C@]12C(=O)CO [Compound 58]
- EC50 [1]: 32.6 nM

Molecule: C[C@]12C=CC(=O)C=C1CC[C@@H]1[C@@H]2[C@@H](O)C[C@@]2(C)[C@H]1C[C@H]1O[C@@H](/C=C/c3cccc(N)c3)O[C@]12C(=O)CO [Compound 67]
- EC50 [1]: 172 nM

Molecule: C[C@]12C=CC(=O)C=C1CC[C@@H]1[C@@H]2[C@@H](O)C[C@@]2(C)[C@H]1C[C@H]1O[C@@H](C3CCC3)O[C@]12C(=O)CO [Compound 85]
- EC50 [1]: 4.9 nM

Molecule: CCCC1O[C@@H]2C[C@H]3[C@@H]4CCC5=CC(=O)C=C[C@]5(C)[C@H]4[C@@H](O)C[C@]3(C)[C@]2(C(=O)CO)O1 (stereo partly shown) [budesonide, reference compound]
- IFNγ % Media [2]: 1 % Media
- IL2 % Media [2]: 14 % Media
- IL12p40 % Media [2]: 1 % Media

Molecule: C[C@@H]1C[C@H]2[C@@H]3CCC4=CC(=O)C=C[C@]4(C)[C@@]3(F)[C@@H](O)C[C@]2(C)[C@@]1(O)C(=O)CO [dexamethasone, reference compound]
- Mean Swelling (mm) [3]: 0.07 mm

Molecule: belimumab [Anti-BAFF (belimumab)]
- IFNγ % Media [2]: 140 % Media
- IL2 % Media [2]: 72 % Media
- IL12p40 % Media [2]: 139 % Media
- IL6 % Media ([2]; LLOQ = lower limit of quantitation in the MSD assay): 121 % Media

Molecule: belimumab [BAFF mAb (belimumab)]
- EC50 ([4]; Table 22, 24 hour incubation, * = low confidence in EC50 due to curve fit, read-out: EC50 (nM) Mem(BAFF) line): > 500 nM
- GR agonism over the complete dilution series ([4]; memBAFF line, 500 nM-[…]): no GR agonism
- EC50 ([5]; Table 22, 24 hour incubation, * = low confidence in EC50 due to curve fit): > 500 nM
- GR agonism over the complete dilution series ([5]; parental line, 500 nM-[…]): no GR agonism
